Series [1] deals with humans. Nature of the series: Intraocular pressure (IOP) in human subjects after topical ocular micro-dosing, conventional vs fractionated. In kind it is in vivo. The settings on record: FIG. 5.
Series [2] concerns humans. Nature of the series: Distance corrected near visual acuity (DCNVA) in human subjects after topical ocular micro-dosing, conventional vs fractionated.

One compound from patent US12496218B1, “Fractionated topical ocular drug delivery methods and devices for use in the same” (Bausch + Lomb Ireland Limited, priority 2019, dated 2025) can be followed below.

Structures are written as SMILES.

In the case of `CC[C@@H]1C(=O)OC[C@@H]1Cc1cncn1C` [pilocarpine], the “IOP (intraocular pressure) result, regimen B compared with regimen C” value in series [1] (dose regimen B: fractionated 1% pilocarpine) is “performed much better”. For the same compound, in series [1] (dose regimen C: single dose of 2% pilocarpine), the “IOP (intraocular pressure) result” value is “null IOP result”. Also, the toxic effects result in series [2] (2% pilocarpine, double dosing (regimen D) vs single dose (regimen C)) is “absence of any evident toxic effects”. In addition, the “change from baseline DCNVA (letter score)” value in series [2] (dose regimen B (fractionated 1% pilocarpine), both eyes, photopic conditions, FIG. 4, significant at 1 and 2 hours post-dosing) is given as “biggest gain from baseline at all time points”. Besides, in series [2] (dose regimen B: double (fractionated) micro-dose of 1% pilocarpine, 5 minute interval, mesopic and photopic illumination), the “portion of subjects who gained more than 15 letters of distance corrected near vision compared with baseline” value is listed as 66.7%. Besides, the “eyes that achieved 3 lines of distance corrected near vision improvement” value is given as 33.3% in series [2] (dose regimen C: single non fractionated dose of 2% pilocarpine) and 0% in series [2] (dose regimen D: double dosing of 2% pilocarpine). Besides, the “distance corrected near visual acuity, group B compared with group A” value in series [2] (double (fractionated) dose of 1% pilocarpine (B) vs single conventional dose of 1% pilocarpine (A)) was “statistically significant improvement”. The “distance corrected near vision, regimen B compared with regimen C (same total drug amount)” value in series [2] (fractionated micro-dose of 1% pilocarpine (B) vs 1 dose of 2% pilocarpine (C), mesopic and photopic) is on record as “performed significantly better”.
